Test results reported in publication PMC4861708 (Frontiers in Cell and Developmental Biology, 2016).
≈ marks a conversion by molar mass, not a printed value. Where a SMILES comes first, the peptide text is derived from it. [ ]: non-standard residue; d: D form. The star is where a group is joined. Orn(α-tetramethylguanidino) = CN(C)C(=N[C@@H](CCCN)C(=O)*)N(C)C; Orn = NCCC[C@H](N)C(=O)O

Tests used:
in vitro = type: cell-based, rat; settings: rat
Procedure: (§1) Human embryonic kidney (HEK293) and HeLa cells were cultured in Dulbecco's modified Eagle's/Ham's F-12 medium [DMEM/F-12 (1:1)] supplemented with FBS (10% v/v), penicillin, and streptomycin (1000 units each). Primary rat cardiomyocytes (Innoprot, Elexalde Derio, Spain) were grown in medium supplemented with FBS (20% v/v), horse serum (5% v/v), L-glutamine (2 mmol/L), sodium pyruvate (2 mmol/L), MEM non-essential amino acids (Gibco, 0.1 mmol/L), penicillin, and streptomycin (1000 units each). Surfaces for cardiomyocyte growth were coated with attachment factor first. Cells (20,000/well) were seeded into a 96-well plate (PS, sterile, flat bottom), incubated for 24 h (37°C, 5% CO2), and washed twice with PBS (100 μl/well) prior to adding colorless medium (88 μL) and peptide solution (12 μL; 5, 2.5, 1.25, […], and 0.625 g/L in PBS). Positive controls were triton X-100 (1%, v/v) and melittin (60 mg/L) as lytic peptide, whereas PBS (12%, v/v) served as negative control. After an incubation period of 24 h, supernatant (25 μL) was mixed with lactate dehydrogenase (LDH) substrate (175 μL; 0.57 mmol/L sodium pyruvate, 0.24 mmol/L NADH disodium salt, 32 mmol/L potassium dihydrogen phosphate, 66 mmol/L dipotassium phosphate) in 96-well plates (PS, sterile, flat bottom). Absorbance was recorded at 340 nm every 3 min for 30 min on the Paradigm microplate reader. Due to the total release of LDH upon triton X-100 treatment, the control contained high LDH concentrations resulting in a fast substrate turnover that was only linear for the first 6 min.
(§2) The MTT cell viability assay relied on the same cell culture. Remaining medium was replaced by a mixture of fresh colorless medium (100 μL) and MTT (10 μL; 5 g/L in PBS) and incubated for 4 h (37°C, 5% CO2). A solution of sodium dodecyl sulfate (100 μL; 10%, w/v) dissolved in hydrochloric acid (10 mmol/L) was added, incubated (16 h), and the absorbance recorded at 590 nm relative to the reference at 650 nm (Paradigm microplate reader). The relative cell viability was calculated by [(ODPeptide − ODTriton)/(ODPBS − ODTriton)] × 100% and half-maximal inhibitory concentrations (IC50) with an Excel-template from cell biology protocols (www.sciencegateway.org/ protocols/cellbio/drug/hcic50.htm). For statistical analysis an unpaired t-test was applied using GraphPad Prism 5.0.

[1] = test system: Primary rat cardiomyocytes; test: in vitro; type: cell-based; settings: 24 h
Procedure: as §1, §2

HeLa cells = test: in vitro; type: cell-based; settings: 24 h
Procedure: as §1, §2

P. aeruginosa DSM 9644 = type: cell-based, Pseudomonas aeruginosa; settings: DSM 9644, 24 h
Procedure: (§3) MICs of P. aeruginosa strains DSM 1117 (ATCC 27853), DSM 3227 (ATCC 19429), and DSM 9644 were determined in a microdilution broth assay using 50 or 100% MHB (11.5 and 23 g/L MHB, respectively) whereas MICs of E. coli DSM 1103 (ATCC 25922) and K. pneumoniae DSM 681 (ATCC 10031) were determined in TSB (30 g/L TSB). Peptides (1 g/L in water) were serially two-fold diluted in a 96-well microtiter plate (PS, sterile, flat bottom) in 50 μL of the corresponding medium to final concentrations of 512–4 μg/mL. Bacteria were grown in nutrient broth overnight and diluted to a cell concentration of 1.5 × 10^7 cells/mL in the corresponding medium. Cell densities were determined by using the McFarland standard as reference. An aliquot (50 μL) of the cell culture was added to each well and incubated (37°C, 24 h). The OD595 was determined in a SpectraMax 340PC (Molecular Devices, Sunnyvale, USA). Additionally, MIC values were also determined for high bacteria densities (5 × 10^8 cells/mL) corresponding to the conditions used for TEM, as described above.

[2] = Quartz crystal microbalance, membrane interaction; type: binding
Procedure: Data were acquired with the Q-Sense E4 system (Q-sense, Sweden using polished, gold-coated, AT-cut quartz sensors with a fundamental frequency of ca. 5 MHz (Q-Sense, Västra Frölunda, Sweden) (Mechler et al., [2007]; McCubbin et al., [2011]). Briefly, sensors were cleaned with hydrogen peroxide (6% w/v) and aqueous ammonia (5.6% w/v) for 20 min (70–75°C), washed with water, and then activated with 3-mercaptopropionic acid (1 mmol/L in isopropanol) overnight. Liposomes consisting of DMPC and DMPG (molar ratio of 4:1) were deposited onto the sensors, washed with “high salt” PBS (20 mmol/L potassium phosphate, 0.1 mol/L NaCl, pH 6.9) and then with “low salt” PBS (10 mmol/L potassium phosphate, 30 mmol/L NaCl, pH 6.9). The system was equilibrated at 19.1 ± 0.1°C with “high salt” PBS, prior to the introduction of peptide solutions (2; 5; 10 and 20 μmol/L, 1 mL each in “high salt” PBS) at a flow rate of 50 μL/min over 20 min followed by an incubation, without any flow. Afterwards the “high salt” PBS was again introduced at 300 μL/min to determine if any surface materials could be removed from the sensor. Changes in the sensor frequency (Δf) and dissipation (ΔD) were monitored for the third, fifth, seventh, and ninth harmonic using Q-Soft (Q-Sense) and analyzed using Origin 8 software.

HEK293 cells = test system: HEK293 cells; design: method as in Berthold et al., 2013; Bluhm et al., 2015; settings: ref Berthold et al., 2013, Bluhm et al., 2015; cited from earlier work
[3] = test system: P. aeruginosa DSM 3227 (ATCC 19429); type: cell-based, Pseudomonas aeruginosa; settings: DSM 3227, 24 h
Procedure: as §3

[4] = design: method as in unpublished data; settings: four intraperitoneal injections of 80 mg/kg per day; ref unpublished data; cited from earlier work

Compound | viability at 24 h, 0.6 g/L (in vitro) | IC50 on cell viability [1] | IC50 on cell viability (HeLa cells) | MIC P. aeruginosa DSM 9644 (P. aeruginosa DSM 9644) | QCM Δf (peptide insertion) ([2]; 2 μmol/L, DMPC:DMPG 4:1) | QCM Δf (peptide insertion) ([2]; 5, 10, and 20 μmol/L, DMPC:DMPG 4:1) | QCM change in dissipation (ΔD) ([2]; 2-20 μmol/L, incubation period ii) | QCM frequency loss upon washing with PBS buffer ([2]; period iii, DMPC:DMPG 4:1) | IC50 on cell viability (HEK293 cells) | MIC P. aeruginosa DSM 3227 [3] | in vivo tolerance, acute toxic effects [4]
CC(C)C[C@H](NC(=O)[C@H](CCCNC(=N)N)NC(=O)[C@@H]1CCCN1C(=O)[C@H](Cc1c[nH]cn1)NC(=O)[C@@H]1CCCN1C(=O)[C@@H]1CCCN1C(=O)[C@H](CCCNC(=N)N)NC(=O)[C@@H]1CCCN1C(=O)[C@H](CCCNC(=N)N)NC(=O)[C@@H]1CCCN1C(=O)[C@H](CCCN)NC(=O)[C@H](Cc1ccc(O)cc1)NC(=O)[C@@H](NC(=O)[C@@H]1CCCN1C(=O)[C@H](CCCNC(=N)N)NC(=O)[C@H](CCCN)NC(=O)[C@H](Cc1c[nH]c2ccccc12)NC(=O)[C@H](CCCN)NC(=O)[C@H](Cc1c[nH]c2ccccc12)NC(=O)[C@H](CCCN)NC(=O)[C@H](Cc1c[nH]c2ccccc12)NC(=O)[C@H](CCCN)N=C(N(C)C)N(C)C)C(C)C)C(=O)O [Api794, gu-O(WO)3RPVYOPRPRPPHPRL-OH] ({Orn(α-tetramethylguanidino)}-W[Orn]W[Orn]W[Orn]RPVY[Orn]PRPRPPHPRL-OH) | 64 ± 3% | >600 µg/mL | 230 ± 90 µg/mL (≈ 77.6 µM) | 16 µg/mL (≈ 5.4 µM) |  |  |  |  |  |  | 
CC[C@H](C)[C@H](NC(=O)[C@H](CCCN)N=C(N(C)C)N(C)C)C(=O)N[C@@H](CCCN)C(=O)N[C@H](C(=O)N[C@@H](CCCN)C(=O)N[C@@H](CCCNC(=N)N)C(=O)N1CCC[C@H]1C(=O)N[C@H](C(=O)N[C@@H](Cc1ccc(O)cc1)C(=O)N[C@@H](CCCN)C(=O)N1CCC[C@H]1C(=O)N[C@@H](CCCNC(=N)N)C(=O)N1CCC[C@H]1C(=O)N[C@@H](CCCNC(=N)N)C(=O)N1CCC[C@H]1C(=O)N1CCC[C@H]1C(=O)N[C@@H](Cc1c[nH]cn1)C(=O)N1CCC[C@H]1C(=O)N[C@@H](CCCNC(=N)N)C(=O)N[C@@H](CC(C)C)C(=O)O)C(C)C)[C@@H](C)CC [Api795, gu-O(IO)2RPVYOPRPRPPHPRL-OH] ({Orn(α-tetramethylguanidino)}-I[Orn]I[Orn]RPVY[Orn]PRPRPPHPRL-OH) | 83 ± 4% | >600 µg/mL | >600 µg/mL |  | 9 Hz | 6 Hz |  |  |  |  | 
CC[C@H](C)[C@H](NC(=O)[C@H](Cc1ccc(O)cc1)NC(=O)[C@@H](NC(=O)[C@@H]1CCCN1C(=O)[C@H](CCCNC(=N)N)NC(=O)[C@H](CC(N)=O)NC(=O)[C@H](CC(N)=O)NC(=O)[C@H](CCCN)N=C(N(C)C)N(C)C)C(C)C)C(=O)N1CCC[C@H]1C(=O)N[C@@H](CCCNC(=N)N)C(=O)N1CCC[C@H]1C(=O)N[C@@H](CCCNC(=N)N)C(=O)N1CCC[C@H]1C(=O)N1CCC[C@H]1C(=O)N[C@@H](Cc1c[nH]cn1)C(=O)N1CCC[C@H]1C(=O)N[C@@H](CCCNC(=N)N)C(=O)N[C@@H](CC(C)C)C(=O)O [Api137, gu-ONNRPVYIPRPRPPHPRL-OH, reference compound] ({Orn(α-tetramethylguanidino)}-NNRPVYIPRPRPPHPRL-OH) |  |  |  |  |  |  | No change | ~ 2 Hz | >600 µg/mL | >256 µg/mL | no acute toxic effects
